Assay results published in the supplement of paper PMC10307832.

Experiments:
Test in all cases: relative viability (nuclei count vs DMSO), 5 days (fraction); higher = more cells survive
AZD5582 + Palbociclib = compound: C[C@@H](C(=O)N[C@@H](C1CCCCC1)C(=O)N2CCC[C@H]2C(=O)N[C@@H]3[C@@H](CC4=CC=CC=C34)OCC#CC#CCO[C@@H]5CC6=CC=CC=C6[C@@H]5NC(=O)[C@@H]7CCCN7C(=O)[C@H](C8CCCCC8)NC(=O)[C@H](C)NC)NC [AZD5582] + CC(=O)c1c(C)c2cnc(Nc3ccc(N4CCNCC4)cn3)nc2n(C2CCCC2)c1=O [Palbociclib] (partner 0.5 µM)
How it was run: (§1)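 Lung cancer cell lines in 1536-well plates were dosed by pin tool the day after seeding, either with one drug alone or with a fixed anchor-drug dose plus five library-drug doses (not always all listed) in √10 steps. After 5 days, cells were fixed and their nuclei stained in one step (final 0.05% Triton X-100, 1% formaldehyde, 1 ug/ml Hoechst), then counted on 4× images. Relative viability is the nuclei count in treated wells divided by that in vehicle wells. Values are medians of duplicate plates.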

[1] = compound: Cn1nnc2c(C(N)=O)ncn2c1=O [Temozolomide] + Nc1ncn([C@H]2C[C@H](O)[C@@H](CO)O2)c(=O)n1 [Decitabine] (partner 2 µM)
How it was run: as §1

[2] = compound: Cn1nnc2c(C(N)=O)ncn2c1=O [Temozolomide] + C[C@@H](Oc1cc(-c2cnn(C3CCNCC3)c2)cnc1N)c1c(Cl)ccc(F)c1Cl [Crizotinib] (partner 1 µM)
How it was run: as §1

AZD5582 + AZD7762 = compound: C[C@@H](C(=O)N[C@@H](C1CCCCC1)C(=O)N2CCC[C@H]2C(=O)N[C@@H]3[C@@H](CC4=CC=CC=C34)OCC#CC#CCO[C@@H]5CC6=CC=CC=C6[C@@H]5NC(=O)[C@@H]7CCCN7C(=O)[C@H](C8CCCCC8)NC(=O)[C@H](C)NC)NC [AZD5582] + NC(=O)Nc1cc(-c2cccc(F)c2)sc1C(=O)N[C@H]1CCCNC1 [AZD7762] (partner 0.2 µM)
How it was run: as §1

NCI-H1734
relative viability (AZD5582 + Palbociclib; first compound 0.001581 µM): 0.295 | relative viability (AZD5582 + Palbociclib; first compound 0.005 µM): 0.356 | relative viability (AZD5582 + Palbociclib; first compound 0.01581 µM): 0.366 | relative viability (AZD5582 + Palbociclib; first compound 0.05 µM): 0.333 | relative viability ([1]; first compound 0.2 µM): 0.535 | relative viability ([1]; first compound 0.6325 µM): 0.536 | relative viability ([1]; first compound 2 µM): 0.56 | relative viability ([1]; first compound 6.325 µM): 0.522 | relative viability ([1]; first compound 20 µM): 0.452 | relative viability ([2]; first compound 0.2 µM): 0.707 | relative viability ([2]; first compound 0.6325 µM): 0.704 | relative viability ([2]; first compound 2 µM): 0.684 | relative viability ([2]; first compound 6.325 µM): 0.647 | relative viability ([2]; first compound 20 µM): 0.656 | relative viability (AZD5582 + AZD7762; first compound 0.001581 µM): 0.502 | relative viability (AZD5582 + AZD7762; first compound 0.005 µM): 0.498 | relative viability (AZD5582 + AZD7762; first compound 0.01581 µM): 0.584 | relative viability (AZD5582 + AZD7762; first compound 0.05 µM): 0.749

A-427
relative viability (AZD5582 + Palbociclib; first compound 0.001581 µM): 0.462 | relative viability (AZD5582 + Palbociclib; first compound 0.005 µM): 0.473 | relative viability (AZD5582 + Palbociclib; first compound 0.01581 µM): 0.528 | relative viability (AZD5582 + Palbociclib; first compound 0.05 µM): 0.495 | relative viability ([1]; first compound 0.2 µM): 0.565 | relative viability ([1]; first compound 0.6325 µM): 0.538 | relative viability ([1]; first compound 2 µM): 0.459 | relative viability ([1]; first compound 6.325 µM): 0.443 | relative viability ([1]; first compound 20 µM): 0.396 | relative viability ([2]; first compound 0.2 µM): 0.927 | relative viability ([2]; first compound 0.6325 µM): 0.775 | relative viability ([2]; first compound 2 µM): 0.815 | relative viability ([2]; first compound 6.325 µM): 0.594 | relative viability ([2]; first compound 20 µM): 0.428 | relative viability (AZD5582 + AZD7762; first compound 0.001581 µM): 0.682 | relative viability (AZD5582 + AZD7762; first compound 0.005 µM): 0.703 | relative viability (AZD5582 + AZD7762; first compound 0.01581 µM): 0.748 | relative viability (AZD5582 + AZD7762; first compound 0.05 µM): 0.637

NCI-H1915
relative viability (AZD5582 + Palbociclib; first compound 0.001581 µM): 0.521 | relative viability (AZD5582 + Palbociclib; first compound 0.005 µM): 0.536 | relative viability (AZD5582 + Palbociclib; first compound 0.01581 µM): 0.502 | relative viability (AZD5582 + Palbociclib; first compound 0.05 µM): 0.544 | relative viability ([1]; first compound 0.2 µM): 0.246 | relative viability ([1]; first compound 0.6325 µM): 0.266 | relative viability ([1]; first compound 2 µM): 0.277 | relative viability ([1]; first compound 6.325 µM): 0.268 | relative viability ([1]; first compound 20 µM): 0.223 | relative viability ([2]; first compound 0.2 µM): 0.922 | relative viability ([2]; first compound 0.6325 µM): 0.816 | relative viability ([2]; first compound 2 µM): 0.754 | relative viability ([2]; first compound 6.325 µM): 0.597 | relative viability ([2]; first compound 20 µM): 0.342 | relative viability (AZD5582 + AZD7762; first compound 0.001581 µM): 0.657 | relative viability (AZD5582 + AZD7762; first compound 0.005 µM): 0.672 | relative viability (AZD5582 + AZD7762; first compound 0.01581 µM): 0.673 | relative viability (AZD5582 + AZD7762; first compound 0.05 µM): 0.495

LK-2
relative viability (AZD5582 + Palbociclib; first compound 0.001581 µM): 0.553 | relative viability (AZD5582 + Palbociclib; first compound 0.005 µM): 0.738 | relative viability (AZD5582 + Palbociclib; first compound 0.05 µM): 0.75 | relative viability ([1]; first compound 0.2 µM): 0.318 | relative viability ([1]; first compound 0.6325 µM): 0.284 | relative viability ([1]; first compound 2 µM): 0.263 | relative viability ([1]; first compound 6.325 µM): 0.225 | relative viability ([1]; first compound 20 µM): 0.211 | relative viability ([2]; first compound 0.2 µM): 0.26 | relative viability ([2]; first compound 0.6325 µM): 0.229 | relative viability ([2]; first compound 2 µM): 0.252 | relative viability ([2]; first compound 6.325 µM): 0.206 | relative viability ([2]; first compound 20 µM): 0.213 | relative viability (AZD5582 + AZD7762; first compound 0.001581 µM): 0.249 | relative viability (AZD5582 + AZD7762; first compound 0.005 µM): 0.537 | relative viability (AZD5582 + AZD7762; first compound 0.05 µM): 0.338

NCI-H1755
relative viability (AZD5582 + Palbociclib; first compound 0.001581 µM): 0.449 | relative viability (AZD5582 + Palbociclib; first compound 0.005 µM): 0.484 | relative viability (AZD5582 + Palbociclib; first compound 0.01581 µM): 0.453 | relative viability (AZD5582 + Palbociclib; first compound 0.05 µM): 0.526 | relative viability ([1]; first compound 0.2 µM): 0.749 | relative viability ([1]; first compound 0.6325 µM): 0.732 | relative viability ([1]; first compound 2 µM): 0.676 | relative viability ([1]; first compound 6.325 µM): 0.63 | relative viability ([1]; first compound 20 µM): 0.573 | relative viability ([2]; first compound 0.2 µM): 1 | relative viability ([2]; first compound 0.6325 µM): 0.894 | relative viability ([2]; first compound 2 µM): 0.894 | relative viability ([2]; first compound 6.325 µM): 0.805 | relative viability ([2]; first compound 20 µM): 0.678 | relative viability (AZD5582 + AZD7762; first compound 0.001581 µM): 0.438 | relative viability (AZD5582 + AZD7762; first compound 0.005 µM): 0.472 | relative viability (AZD5582 + AZD7762; first compound 0.01581 µM): 0.291 | relative viability (AZD5582 + AZD7762; first compound 0.05 µM): 0.494

NCI-H650
relative viability (AZD5582 + Palbociclib; first compound 0.001581 µM): 0.328 | relative viability (AZD5582 + Palbociclib; first compound 0.005 µM): 0.287 | relative viability (AZD5582 + Palbociclib; first compound 0.01581 µM): 0.255 | relative viability (AZD5582 + Palbociclib; first compound 0.05 µM): 0.245 | relative viability ([1]; first compound 0.2 µM): 0.355 | relative viability ([1]; first compound 0.6325 µM): 0.319 | relative viability ([1]; first compound 2 µM): 0.348 | relative viability ([1]; first compound 6.325 µM): 0.303 | relative viability ([1]; first compound 20 µM): 0.339 | relative viability ([2]; first compound 0.2 µM): 0.679 | relative viability ([2]; first compound 0.6325 µM): 0.697 | relative viability ([2]; first compound 2 µM): 0.607 | relative viability ([2]; first compound 6.325 µM): 0.725 | relative viability ([2]; first compound 20 µM): 0.669 | relative viability (AZD5582 + AZD7762; first compound 0.001581 µM): 1.05 | relative viability (AZD5582 + AZD7762; first compound 0.005 µM): 1.07 | relative viability (AZD5582 + AZD7762; first compound 0.01581 µM): 0.643 | relative viability (AZD5582 + AZD7762; first compound 0.05 µM): 0.788

NCI-H441
relative viability (AZD5582 + Palbociclib; first compound 0.001581 µM): 0.232 | relative viability (AZD5582 + Palbociclib; first compound 0.005 µM): 0.224 | relative viability (AZD5582 + Palbociclib; first compound 0.01581 µM): 0.206 | relative viability (AZD5582 + Palbociclib; first compound 0.05 µM): 0.187 | relative viability ([1]; first compound 0.2 µM): 0.255 | relative viability ([1]; first compound 0.6325 µM): 0.279 | relative viability ([1]; first compound 2 µM): 0.226 | relative viability ([1]; first compound 6.325 µM): 0.278 | relative viability ([1]; first compound 20 µM): 0.254 | relative viability ([2]; first compound 0.2 µM): 0.717 | relative viability ([2]; first compound 0.6325 µM): 0.824 | relative viability ([2]; first compound 2 µM): 0.775 | relative viability ([2]; first compound 6.325 µM): 0.766 | relative viability ([2]; first compound 20 µM): 0.78 | relative viability (AZD5582 + AZD7762; first compound 0.001581 µM): 0.942 | relative viability (AZD5582 + AZD7762; first compound 0.005 µM): 0.895 | relative viability (AZD5582 + AZD7762; first compound 0.01581 µM): 1.02 | relative viability (AZD5582 + AZD7762; first compound 0.05 µM): 0.867
